In patent US10722514B2 (FLX Bio, Inc., priority 2017, dated 2020):
pIC50: −log10 of the molar value. Structures can show the parent of a compound that is named as a salt.

What follows are compounds tested against T1, recombinant full-length USP7 (Homo sapiens, UniProt Q93009) (assay: USP7-mediated ubiquitin-rhodamine cleavage assay). Conditions: recombinant full-length USP7 62 pM; ubiquitin-rhodamine 100 nM; 30-minute incubation with compound, 1 hour reaction at room temperature; read-out: Potency: USP7 IC50.
T1 construct: A 25 μl reaction volume containing recombinant full-length USP7 (62 pM)
T1 sequence (Q93009 whole entry): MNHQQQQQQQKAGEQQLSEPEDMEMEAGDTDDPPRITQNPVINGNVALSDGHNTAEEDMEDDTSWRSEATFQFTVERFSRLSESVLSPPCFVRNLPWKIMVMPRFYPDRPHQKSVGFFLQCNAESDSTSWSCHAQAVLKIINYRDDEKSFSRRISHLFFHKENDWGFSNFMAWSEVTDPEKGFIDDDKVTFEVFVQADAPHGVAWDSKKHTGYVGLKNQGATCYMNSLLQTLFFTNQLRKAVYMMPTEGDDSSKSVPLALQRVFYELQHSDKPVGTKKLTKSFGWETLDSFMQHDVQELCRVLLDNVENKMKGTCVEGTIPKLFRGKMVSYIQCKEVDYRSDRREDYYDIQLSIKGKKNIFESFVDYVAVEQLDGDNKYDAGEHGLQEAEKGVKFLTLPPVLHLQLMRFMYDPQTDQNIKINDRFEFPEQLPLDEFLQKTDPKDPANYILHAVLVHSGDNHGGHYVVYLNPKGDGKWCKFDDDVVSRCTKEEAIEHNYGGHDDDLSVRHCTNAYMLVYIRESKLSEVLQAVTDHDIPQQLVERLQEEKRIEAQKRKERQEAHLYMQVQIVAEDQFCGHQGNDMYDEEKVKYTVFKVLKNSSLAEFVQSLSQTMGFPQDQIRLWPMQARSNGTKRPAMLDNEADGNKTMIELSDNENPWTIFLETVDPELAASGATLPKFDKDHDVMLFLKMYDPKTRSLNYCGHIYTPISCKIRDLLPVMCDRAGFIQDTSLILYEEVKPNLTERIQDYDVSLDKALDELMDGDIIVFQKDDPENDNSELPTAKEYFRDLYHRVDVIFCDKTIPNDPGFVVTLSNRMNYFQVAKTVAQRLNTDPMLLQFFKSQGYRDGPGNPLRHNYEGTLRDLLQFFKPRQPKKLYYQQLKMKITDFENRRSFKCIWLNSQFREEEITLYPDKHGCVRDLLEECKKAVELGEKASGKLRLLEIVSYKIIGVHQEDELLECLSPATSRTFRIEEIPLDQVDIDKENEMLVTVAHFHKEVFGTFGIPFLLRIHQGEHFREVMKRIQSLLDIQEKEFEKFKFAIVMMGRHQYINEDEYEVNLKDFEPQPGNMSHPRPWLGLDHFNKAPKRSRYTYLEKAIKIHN
Assay type: biochemical
Procedure, shortened: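 USP7 (62 pM) in 20 mM HEPES pH 7.3, 150 mM NaCl, 1 mM TCEP, 125 μg/ml BSA was preincubated with compound (1% DMSO) for 30 min at room temperature. Ubiquitin-rhodamine (100 nM final) was then added for 1 hour, the reaction stopped with acetic acid, and fluorescence read; IC50 from 4-parameter fit.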

pIC50	SMILES
> 6.00	Cc1cc(C(F)(F)F)cc(-c2ccnc3cc(CN4C(=O)CCC4=O)sc23)c1O[C@@H]1CNC[C@@H]1F [Example 63, 1-((7-(2-(((3R,4S)-4-Fluoropyrrolidin-3-yl)oxy)-3-methyl-5-(trifluoromethyl)phenyl)thieno[3,2-b]pyridin-2-yl)methyl)pyrrolidine-2,5-dione]
> 6.00	CCN1C[C@H](F)[C@H](Oc2c(C)cc(Cl)cc2-c2ccnc3cc(CN4C(=O)C5CC5C4=O)sc23)C1 (stereo partly drawn) [Example 310, 3-[[7-[5-chloro-2-[(3R,4S)-1-ethyl-4-fluoro-pyrrolidin-3-yl]oxy-3-methyl-phenyl]thieno[3,2-b]pyridin-2-yl]methyl]-3-azabicyclo[3.1.0]hexane-2,4-dione]
> 6.00	Cc1cc(Cl)cc(-c2ccnc3cc(Cn4c(=O)ccn(CC(F)(F)F)c4=O)sc23)c1OC1CCNCC1C(F)(F)F (stereo not drawn) [Example 272, 3-((7-(5-Chloro-3-methyl-2-((3-(trifluoromethyl)piperidin-4-yl)oxy)phenyl)thieno[3,2-b]pyridin-2-yl)methyl)-1-(2,2,2-trifluoroethyl)pyrimidine-2,4(1H,3H)-dione]
> 6.00	Cc1cc(Cl)cc(-c2ccnc3cc(CN4C(=O)CCC4=O)sc23)c1O[C@@H]1CNC[C@@H]1CO [Example 98, 1-((7-(5-Chloro-2-(((3S,4R)-4-(hydroxymethyl)pyrrolidin-3-yl)oxy)-3-methylphenyl)thieno[3,2-b]pyridin-2-yl)methyl)pyrrolidine-2,5-dione]
5.00 to 6.00	Cc1cc(Cl)cc(-c2ccnc3cc(CO)sc23)c1OC1CC2CNC1C2 (stereo not drawn) [Example 165, (7-(2-((2-Azabicyclo[2.2.1]heptan-6-yl)oxy)-5-chloro-3-methylphenyl)thieno[3,2-b]pyridin-2-yl)methanol]
> 6.00	Cc1cc(Cl)cc(-c2ccnc3cc(CN4C(=O)CCC4=O)sc23)c1O[C@@H]1CC[C@@H](N)C1 [Example 126, 1-((7-(2-(((1R,3R)-3-Aminocyclopentyl)oxy)-5-chloro-3-methylphenyl)thieno[3,2-b]pyridin-2-yl)methyl)pyrrolidine-2,5-dione]
> 6.00	CC[C@@H](c1cc2nccc(-c3cc(Cl)cc(C)c3O[C@H]3CCCNC3)c2s1)N1C(=O)CCC1=O [Example 257, 1-((S)-1-(7-(5-Chloro-3-methyl-2-(((S)-piperidin-3-yl)oxy)phenyl)thieno[3,2-b]pyridin-2-yl)propyl)pyrrolidine-2,5-dione]
> 6.00	CCN1C[C@H]2C[C@@H]1[C@H](Oc1c(C)cc(Cl)cc1-c1ccnc3cc(CN4C(=O)C5CC5C4=O)sc13)C2 (stereo partly drawn) [Example 320, 3-[[7-[5-chloro-2-[[(1S,4R,5R)-3-ethyl-3-azabicyclo[2.2.1]heptan-5-yl]oxy]-3-methyl-phenyl]thieno[3,2-b]pyridin-2-yl]methyl]-3-azabicyclo[3.1.0]hexane-2,4-dione]
> 6.00	Cc1cc(Cl)cc(-c2ccnc3cc(CN4C(=O)CCC4=O)sc23)c1O[C@@H]1CCNC[C@@H]1C [Example 303, 1-[[7-[5-chloro-3-methyl-2-[[(3S,4R)-3-methyl-4-piperidyl]oxy]phenyl]thieno[3,2-b]pyridin-2-yl]methyl]pyrrolidine-2,5-dione]
> 6.00	O=C1CCC(=O)N1Cc1cc2nccc(-c3cc(Cl)cc(Cl)c3O[C@@H]3CNC[C@@H]3F)c2s1 [Example 123, 1-((7-(3,5-Dichloro-2-(((3R,4S)-4-fluoropyrrolidin-3-yl)oxy)phenyl)thieno[3,2-b]pyridin-2-yl)methyl)pyrrolidine-2,5-dione]
> 6.00	Cc1cc(Cl)cc(-c2ccnc3cc(Cn4c(=O)ccn(CC(F)(F)F)c4=O)sc23)c1OC1CNCC1(C)C (stereo not drawn) [Example 346, 3-[[7-[5-chloro-2-(4,4-dimethylpyrrolidin-3-yl)oxy-3-methyl-phenyl]thieno[3,2-b]pyridin-2-yl]methyl]-1-(2,2,2-trifluoroethyl)pyrimidine-2,4-dione]
> 6.00	Cc1cc(Cl)cc(-c2ncnc3cc(CN4C(=O)C5CC5C4=O)sc23)c1O[C@@H]1CCNC[C@H]1F (stereo partly drawn) [Example 309, 3-[[4-[5-chloro-2-[[(3R,4R)-3-fluoro-4-piperidyl]oxy]-3-methyl-phenyl]thieno[3,2-d]pyrimidin-6-yl]methyl]-3-azabicyclo[3.1.0]hexane-2,4-dione dihydrochloride]
> 6.00	Cc1cc(Cl)cc(-c2ccnc3cc(CN4C(=O)C5CCCCN5C4=O)sc23)c1OC1CCNCC1 (stereo not drawn) [Example 228, 2-((7-(5-Chloro-3-methyl-2-(piperidin-4-yloxy)phenyl)thieno[3,2-b]pyridin-2-yl)methyl)tetrahydroimidazo[1,5-a]pyridine-1,3(2H,5H)-dione]
< 4.52	Cc1cc(Cl)cc(-c2ccnc3cc(CO)sc23)c1O[C@@H]1CNC[C@@H]1C(C)C [Example 68, (7-(5-Chloro-2-(((3S,4S)-4-isopropylpyrrolidin-3-yl)oxy)-3-methylphenyl)thieno[3,2-b]pyridin-2-yl)methanol]
5.00 to 6.00	Cc1cc(Cl)cc(-c2ccnc3cc(Cn4cnc5ccccc5c4=O)sc23)c1O[C@H]1CCCNC1 [Example 385, 3-[[7-[5-chloro-3-methyl-2-[[(3S)-3-piperidyl]oxy]phenyl]thieno[3,2-b]pyridin-2-yl]methyl]quinazolin-4-one; 2,2,2-trifluoroacetic acid]
4.52 to 5.00	Cc1cc(Cl)cc(-c2ccnc3cc(CO)sc23)c1OC1CC2(CNC2)C1 [Example 48, (7-(2-((2-Azaspiro[3.3]heptan-6-yl)oxy)-5-chloro-3-methylphenyl)thieno[3,2-b]pyridin-2-yl)methanol]

Same assay, conditions: recombinant full-length USP7 62 pM; ubiquitin-rhodamine 100 nM; 30-minute pre-incubation, 1 hour reaction at room temperature; read-out: Potency (USP7 IC50)

pIC50	SMILES
> 6.00	Cc1cc(Cl)cc(-c2ccnc3cc(Cn4c(=O)ccn(CC(F)(F)F)c4=O)sc23)c1O[C@@H]1CN(C2COC2)C[C@@H]1C [Example 606, 3-[[7-[5-chloro-3-methyl-2-[(3S,4S)-4-methyl-1-(oxetan-3-yl)pyrrolidin-3-yl]oxy-phenyl]thieno[3,2-b]pyridin-2-yl]methyl]-1-(2,2,2-trifluoroethyl)pyrimidine-2,4-dione]
> 6.00	Cc1cc(Cl)cc(-c2ccnc3cc(Cn4c(=O)ccn(CCC(F)(F)F)c4=O)sc23)c1O[C@H]1CCCNC1 [Example 583, 3-[[7-[5-chloro-3-methyl-2-[[(3S)-3-piperidyl]oxy]phenyl]thieno[3,2-b]pyridin-2-yl]methyl]-1-(3,3,3-trifluoropropyl)pyrimidine-2,4-dione]
> 6.00	CCN1CC[C@H](Oc2c(C)cc(Cl)cc2-c2ccnc3cc(Cn4c(=O)ccn(C)c4=O)sc23)[C@@H](F)C1 [Example 482, 3-[[7-[5-chloro-2-[[(3S,4S)-1-ethyl-3-fluoro-4-piperidyl]oxy]-3-methyl-phenyl]thieno[3,2-b]pyridin-2-yl]methyl]-1-methyl-pyrimidine-2,4-dione; 2,2,2-trifluoroacetic acid]
5.00 to 6.00	Cc1c(F)c(Cl)cc(-c2ccnc3cc(Cn4c(=O)ccn(C)c4=O)sc23)c1O[C@H]1CCCNC1 [Example 435, 3-[[7-[5-chloro-4-fluoro-3-methyl-2-[[(3S)-3-piperidyl]oxy]phenyl]thieno[3,2-b]pyridin-2-yl]methyl]-1-methyl-pyrimidine-2,4-dione dihydrochloride]
> 6.00	Cc1cc(Cl)cc(-c2ccnc3c(F)c(CO)sc23)c1O[C@@H]1CNC[C@@H]1F [Example 407, [7-[5-chloro-2-[(3R,4S)-4-fluoropyrrolidin-3-yl]oxy-3-methyl-phenyl]-3-fluoro-thieno[3,2-b]pyridin-2-yl]methanol]
> 6.00	Cc1cc(Cl)cc(-c2ccnc3cc(CN4C(=O)CCC4=O)sc23)c1OC1CCOCC1 [Example 450, 1-[[7-(5-chloro-3-methyl-2-tetrahydropyran-4-yloxy-phenyl)thieno[3,2-b]pyridin-2-yl]methyl]pyrrolidine-2,5-dione]
> 6.00	Cc1cc(Cl)cc(-c2ccnc3cc(Cn4c(=O)c(F)cn(C(C)C)c4=O)sc23)c1O[C@@H]1CCNC[C@@H]1C [Example 550, 3-[[7-[5-chloro-3-methyl-2-[[(3S,4R)-3-methyl-4-piperidyl]oxy]phenyl]thieno[3,2-b]pyridin-2-yl]methyl]-5-fluoro-1-isopropyl-pyrimidine-2,4-dione]
> 6.00	Cc1cc(Cl)cc(-c2ccnc3cc(Cn4c(=O)[nH]cc(F)c4=O)sc23)c1O[C@H]1CCCNC1 [Example 420, 3-[[7-[5-chloro-3-methyl-2-[[(3S)-3-piperidyl]oxy]phenyl]thieno[3,2-b]pyridin-2-yl]methyl]-5-fluoro-1H-pyrimidine-2,4-dione]

SMILES	pIC50
Cc1cc(Cl)cc(-c2ncnc3cc(Cn4c(=O)ccn(CC(F)(F)F)c4=O)sc23)c1O[C@@H]1CC[C@@H](N)C1 [Example 603, 3-[[4-[2-[(1R,3R)-3-aminocyclopentoxy]-5-chloro-3-methyl-phenyl]thieno[3,2-d]pyrimidin-6-yl]methyl]-1-(2,2,2-trifluoroethyl)pyrimidine-2,4-dione]	> 6.00
Cc1cc(Cl)cc(-c2ccnc3cc(Cn4c(=O)ccn(C)c4=O)sc23)c1OC1CC(NCCO)C1 (stereo not drawn) [Example 532, 3-[[7-[5-chloro-2-[3-(2-hydroxyethylamino)cyclobutoxy]-3-methyl-phenyl]thieno[3,2-b]pyridin-2-yl]methyl]-1-methyl-pyrimidine-2,4-dione; 2,2,2-trifluoroacetic acid]	> 6.00
Cc1cc(Cl)cc(-c2ncnc3cc(Cn4c(=O)ccn(CC(F)(F)F)c4=O)sc23)c1OC1CC(N)C1 (stereo not drawn) [Example 534, 3-[[4-[2-(3-aminocyclobutoxy)-5-chloro-3-methyl-phenyl]thieno[3,2-d]pyrimidin-6-yl]methyl]-1-(2,2,2-trifluoroethyl)pyrimidine-2,4-dione; 2,2,2-trifluoroacetic acid]	> 6.00
